Measured values from the NIST ThermoML archive (doi:10.1021/acs.jced.8b00524).

Test: xn = mol fraction of the nth substance listed
Conditions: 100 kPa, Liquid; for viscosity: Concentric cylinders viscometry; for mass density: Vibrating tube method

CCCCCCCCCO [nonan-1-ol] + CCCCOC(C)=O
Conditions | mass density [kg/m3] | viscosity [mPa·s]
293.15 K, x2 = 0 | 827.5 | 11.41
293.15 K, x2 = 0.0812 | 830.4 | 10.09
293.15 K, x2 = 0.1601 | 833.4 | 8.95
293.15 K, x2 = 0.2399 | 836.7 | 7.89
293.15 K, x2 = 0.3499 | 841.6 | 6.6
293.15 K, x2 = 0.4399 | 845.9 | 5.65
293.15 K, x2 = 0.5599 | 852.2 | 4.46
293.15 K, x2 = 0.6501 | 857.3 | 3.65
293.15 K, x2 = 0.7399 | 862.7 | 2.89
293.15 K, x2 = 0.8499 | 870 | 1.97
293.15 K, x2 = 0.9452 | 876.8 | 1.18
298.15 K, x2 = 0 | 824 | 9.43
298.15 K, x2 = 0.0812 | 826.7 | 8.31
298.15 K, x2 = 0.1601 | 829.6 | 7.35
298.15 K, x2 = 0.2399 | 832.8 | 6.49
298.15 K, x2 = 0.3499 | 837.4 | 5.4
298.15 K, x2 = 0.4399 | 841.6 | 4.62
298.15 K, x2 = 0.5599 | 847.7 | 3.64
298.15 K, x2 = 0.6501 | 852.7 | 2.99
298.15 K, x2 = 0.7399 | 858 | 2.37
298.15 K, x2 = 0.8499 | 865.1 | 1.65
298.15 K, x2 = 0.9452 | 871.8 | 1.03
303.15 K, x2 = 0 | 820.5 | 7.86
303.15 K, x2 = 0.0812 | 822.9 | 6.89
303.15 K, x2 = 0.1601 | 825.7 | 6.07
303.15 K, x2 = 0.2399 | 828.7 | 5.33
303.15 K, x2 = 0.3499 | 833.1 | 4.43
303.15 K, x2 = 0.4399 | 837.2 | 3.79
303.15 K, x2 = 0.5599 | 843.1 | 3
303.15 K, x2 = 0.6501 | 847.9 | 2.46
303.15 K, x2 = 0.7399 | 853 | 1.97
303.15 K, x2 = 0.8499 | 860 | 1.4
303.15 K, x2 = 0.9452 | 866.5 | 0.91
308.15 K, x2 = 0 | 817.1 | 6.61
308.15 K, x2 = 0.0812 | 819.4 | 5.78
308.15 K, x2 = 0.1601 | 821.9 | 5.08
308.15 K, x2 = 0.2399 | 824.7 | 4.44
308.15 K, x2 = 0.3499 | 828.9 | 3.68
308.15 K, x2 = 0.4399 | 832.8 | 3.14
308.15 K, x2 = 0.5599 | 838.4 | 2.49
308.15 K, x2 = 0.6501 | 843.1 | 2.07
308.15 K, x2 = 0.7399 | 848.1 | 1.67
308.15 K, x2 = 0.8499 | 854.9 | 1.21
308.15 K, x2 = 0.9452 | 861.4 | 0.81
313.15 K, x2 = 0 | 813.6 | 5.59
313.15 K, x2 = 0.0812 | 815.5 | 4.87
313.15 K, x2 = 0.1601 | 817.7 | 4.26
313.15 K, x2 = 0.2399 | 820.2 | 3.72
313.15 K, x2 = 0.3499 | 824.2 | 3.08
313.15 K, x2 = 0.4399 | 827.8 | 2.63
313.15 K, x2 = 0.5599 | 833.2 | 2.11
313.15 K, x2 = 0.6501 | 837.8 | 1.77
313.15 K, x2 = 0.7399 | 842.8 | 1.45
313.15 K, x2 = 0.8499 | 849.5 | 1.07
313.15 K, x2 = 0.9452 | 856 | 0.74
318.15 K, x2 = 0 | 810.1 | 4.78
318.15 K, x2 = 0.0812 | 811.8 | 4.15
318.15 K, x2 = 0.1601 | 813.8 | 3.62
318.15 K, x2 = 0.2399 | 816.1 | 3.16
318.15 K, x2 = 0.3499 | 819.7 | 2.61
318.15 K, x2 = 0.4399 | 823 | 2.24
318.15 K, x2 = 0.5599 | 828.3 | 1.8
318.15 K, x2 = 0.6501 | 832.7 | 1.5
318.15 K, x2 = 0.7399 | 837.5 | 1.24
318.15 K, x2 = 0.8499 | 844.3 | 0.93
318.15 K, x2 = 0.9452 | 850.8 | 0.67
323.15 K, x2 = 0 | 806.5 | 4.1
323.15 K, x2 = 0.0812 | 807.9 | 3.56
323.15 K, x2 = 0.1601 | 809.7 | 3.11
323.15 K, x2 = 0.2399 | 811.8 | 2.71
323.15 K, x2 = 0.3499 | 815.2 | 2.24
323.15 K, x2 = 0.4399 | 818.4 | 1.91
323.15 K, x2 = 0.5599 | 823.5 | 1.54
323.15 K, x2 = 0.6501 | 827.8 | 1.29
323.15 K, x2 = 0.7399 | 832.6 | 1.08
323.15 K, x2 = 0.8499 | 839.1 | 0.83
323.15 K, x2 = 0.9452 | 845.6 | 0.61
